# Test results reported in patent publication US10053468B2, “Heterocyclic compound” (TAKEDA PHARMACEUTICAL COMPANY LIMITED, priority 2013, dated 2018).
# Read-outs that look alike come from different tables or passages of the source.
# How the values were obtained:
# [1] = molecular target: T1, RORγt (Homo sapiens, UniProt P51449); assay: RORγt binding test using fluorescent-labeled cholesterol (TR-FRET); settings: read-out: Binding inhibitory rate of fluorescent-labeled cholesterol to RORγt at test compound 1 μM (%)
# T1 sequence (P51449 1-497 isoform P51449-2): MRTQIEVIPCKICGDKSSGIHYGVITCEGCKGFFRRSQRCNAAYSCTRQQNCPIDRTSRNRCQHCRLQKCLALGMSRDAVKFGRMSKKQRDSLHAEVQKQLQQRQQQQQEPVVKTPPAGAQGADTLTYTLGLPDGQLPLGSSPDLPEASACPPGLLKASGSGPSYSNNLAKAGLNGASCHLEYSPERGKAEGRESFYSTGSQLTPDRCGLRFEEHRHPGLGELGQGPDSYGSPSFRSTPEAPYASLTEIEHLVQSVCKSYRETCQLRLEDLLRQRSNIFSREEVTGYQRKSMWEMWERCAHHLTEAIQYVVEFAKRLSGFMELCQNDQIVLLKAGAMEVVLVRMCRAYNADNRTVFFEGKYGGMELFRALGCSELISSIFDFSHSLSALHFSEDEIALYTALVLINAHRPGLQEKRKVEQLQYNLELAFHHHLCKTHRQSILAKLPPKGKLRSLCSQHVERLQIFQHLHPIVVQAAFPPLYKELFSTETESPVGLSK
# How it was run: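 TR-FRET displacement with His-tagged RORγt, BODIPY-cholesterol and Tb-anti-His antibody in Tris-HCl pH 7.5, 100 mM NaCl, 1 mM DTT, 0.1% BSA. Compound, RORγt and labelled cholesterol were incubated 20 min at RT, then antibody was added for another 20 min.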
# [2] = molecular target: T1, RORγt; assay: Jurkat reporter test (human IL-17 ROR response element luciferase, RORγt vector); type: cell-based; settings: read-out: Luminescence level inhibitory rate at test compound 3 μM (%)
# How it was run: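 Jurkat cells were electroporated (1350 V, 10 ms, 3 pulses) with reporter constructs, then cultured overnight with compound in RPMI containing 10% lipid-reduced FCS, 10 mM HEPES pH 7.5 and 5 μM lovastatin. Luciferase was quantified by Bright-Glo luminescence after 10 min at room temperature.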
# [3] = molecular target: T1, RORγt; assay: Cofactor recruitment test (Alpha Screen, biotinylated SRC-1 peptide); type: biochemical; settings: read-out: Signal value inhibitory rate at test compound 1 μM (%)
# Experimental: Cofactor Recruitment Test
# Cofactor recruitment test was performed by Alpha Screen (Histidine Detection Kit, PerkinElmer) method. First, a test compound was diluted with an assay buffer (50 mM Tris-HCl (pH 7.5), 50 mM KCl, 1 mM DTT, 0.1% BSA) and added to a 384 well plate by 5 μL. […] The mixture was stood in a dark place for 1 hr, and the signal value was measured by Envision (PerkinElmer).
# [4] = molecular target: T1, RORγt; assay: RORγt binding test using fluorescent-labeled synthetic ligand (TR-FRET); settings: read-out: Binding inhibitory rate of fluorescent-labeled synthetic ligand to RORγt at test compound 1 μM (%)
# Experimental: RORγt Binding Test Using Fluorescent-labeled Synthetic Ligand
# The binding activity of the test compound to RORγt was measured by a time resolved fluorescence resonance energy transfer method (TR-FRET) utilizing histidine-tagged RORγt, fluorescent-labeled synthetic ligand, and terbium-labeled anti-histidine tag antibody (Invitrogen). First, a test compound diluted with an assay buffer (20 mM Tris-HCl (pH 7.5), 100 mM NaCl, 1 mM DTT, 0.1% BSA) was added to a 384 well plate by 3 μL. Then, RORγt diluted with an assay buffer to 240 nM was added by 3 μL, after which fluorescent-labeled synthetic ligand diluted with the assay buffer to 12 μM was added by 3 μL, and the mixture was stood at room temperature for 20 min. Thereafter, a terbium-labeled anti-histidine tag antibody diluted with the assay buffer to 8 nM was added by 3 μL. The mixture was stood at room temperature for 20 min, and fluorescence intensity (excitation wavelength 320 nm, fluorescence wavelength 520 nm, delay time 100 microseconds) was measured by Envision (PerkinElmer).
# [5] = test compound 3 μM, Jurkat cells
inhibition at 1 µM [1],"inhibition at 3 µM [2, 5]",Structure (SMILES),inhibition at 1 µM [3],inhibition at 1 µM [4],inhibition at 3 µM ([2]; Jurkat)
101%,99%,"CCOc1ccc2c(c1)CCN(C(=O)Cc1cc(O)no1)[C@H]2C(=O)Nc1cc(F)c(C(C)(C)COCC(F)F)c(F)c1 [Example 155, (1R)-N-(4-(1-(2,2-difluoroethoxy)-2-methylpropan-2-yl)-3,5-difluorophenyl)-6-ethoxy-2-((3-hydroxy-1,2-oxazol-5-yl)acetyl)-1,2,3,4-tetrahydroisoquinoline-1-carboxamide]",84%,101%,–
102%,97%,"CCOCC(C)(C)c1c(F)cc(NC(=O)[C@H]2c3ccc(OC)cc3CCN2C(=O)Cc2cc(O)no2)cc1F [Example 170, (1R)-N-(4-(1-ethoxy-2-methylpropan-2-yl)-3,5-difluorophenyl)-2-((3-hydroxy-1,2-oxazol-5-yl)acetyl)-6-methoxy-1,2,3,4-tetrahydroisoquinoline-1-carboxamide]",81%,102%,–
102%,102%,"COc1ccc2c(c1)CCN(C(=O)Cc1nnc(C)o1)[C@H]2C(=O)Nc1cc(F)c(C(C)(C)C(=O)N2CCCC2)c(F)c1 [Example 106, (1R)-N-(3,5-difluoro-4-(2-methyl-1-oxo-1-(pyrrolidin-1-yl)propan-2-yl)phenyl)-6-methoxy-2-((5-methyl-1,3,4-oxadiazol-2-yl)acetyl)-1,2,3,4-tetrahydroisoquinoline-1-carboxamide]",101%,101%,–
100%,101%,"CCOc1ccc2c(c1)CCN(C(=O)c1cc(O)no1)[C@H]2C(=O)Nc1cc(F)c(C(C)(C)COC)c(F)c1 [Example 163, (1R)-N-(3,5-difluoro-4-(1-methoxy-2-methylpropan-2-yl)phenyl)-6-ethoxy-2-((3-hydroxy-1,2-oxazol-5-yl)carbonyl)-1,2,3,4-tetrahydroisoquinoline-1-carboxamide]",97%,102%,–
100%,97%,"CCOc1ccc2c(c1)CCN(C(=O)CCCC(=O)O)[C@H]2C(=O)Nc1cc(F)c(C(C)(C)COCC(F)F)c(F)c1 [Example 153, 5-((1R)-1-((4-(1-(2,2-difluoroethoxy)-2-methylpropan-2-yl)-3,5-difluorophenyl)carbamoyl)-6-ethoxy-3,4-dihydroisoquinolin-2 (1H)-yl)-5-oxopentanoic acid]",84%,102%,–
102%,98.9%,"COc1ccc2c(n1)CCN(C(=O)Cc1cc(O)no1)C2C(=O)Nc1ccc(C(C)(C)C)c(F)c1 (stereo not drawn) [Example 41, N-(4-tert-butyl-3-fluorophenyl)-6-((3-hydroxy-1,2-oxazol-5-yl)acetyl)-2-methoxy-5,6,7,8-tetrahydro-1,6-naphthyridine-5-carboxamide]",74.9%,102%,–
–,–,"CCOc1ccc2c(c1)CCN(C(=O)CCCC(=O)O)[C@H]2C(=O)Nc1ccc([Si](C)(C)C)c(C#N)c1 [Example 221, 5-((1R)-1-((3-cyano-4-(trimethylsilyl)phenyl)carbamoyl)-6-ethoxy-3,4-dihydroisoquinolin-2(1H)-yl)-5-oxopentanoic acid]",97%,102%,101%
–,–,"CCOc1ccc2c(c1)CCN(C(=O)CCCC(=O)O)[C@H]2C(=O)Nc1cc(F)c([Si](C)(C)C)cc1F [Example 184, 5-((1R)-1-((2,5-difluoro-4-(trimethylsilyl)phenyl)carbamoyl)-6-ethoxy-3,4-dihydroisoquinolin-2(1H)-yl)-5-oxopentanoic acid]",93%,101%,100%
–,–,"CCOc1ccc2c(c1)CCN(C(=O)[C@H](O)CCC(=O)O)[C@H]2C(=O)Nc1cc(F)c([Si](C)(C)C)c(F)c1 [Example 209, (4R)-5-((1R)-1-((3,5-difluoro-4-(trimethylsilyl)phenyl)carbamoyl)-6-ethoxy-3,4-dihydroisoquinolin-2(1H)-yl)-4-hydroxy-5-oxopentanoic acid]",87%,102%,99%
–,98%,"CCOc1ccc2c(c1)CCN(C(=O)CCCCC(=O)O)[C@H]2C(=O)Nc1cc(F)c2c(c1)CCC2(C)C [Example 210, 6-((1R)-6-ethoxy-1-((7-fluoro-1,1-dimethyl-2,3-dihydro-1H-inden-5-yl)carbamoyl)-3,4-dihydroisoquinolin-2(1H)-yl)-6-oxohexanoic acid]",76%,101%,–
–,99%,"CCOc1ccc2c(c1)CCN(C(=O)CCCC(=O)O)[C@H]2C(=O)Nc1cc(F)c2c(c1)CCC2(C)C [Example 182, 5-((1R)-6-ethoxy-1-((7-fluoro-1,1-dimethyl-2,3-dihydro-1H-inden-5-yl)carbamoyl)-3,4-dihydroisoquinolin-2(1H)-yl)-5-oxopentanoic acid]",67%,101%,–
–,–,"COc1ccc2c(c1)CCN(C(=O)NCCCC(=O)O)[C@H]2C(=O)Nc1cc(F)c([Si](C)(C)C)c(F)c1 [Example 242, 4-((((1R)-1-((3,5-difluoro-4-(trimethylsilyl)phenyl)carbamoyl)-6-methoxy-3,4-dihydroisoquinolin-2(1H)-yl)carbonyl)amino)butanoic acid]",94%,101%,101%
–,–,"CCOc1ccc2c(c1)CCN(C(=O)NCCCC(=O)O)[C@H]2C(=O)Nc1cc(F)c([Si](C)(C)C)c(F)c1 [Example 238, 4-((((1R)-1-((3,5-difluoro-4-(trimethylsilyl)phenyl)carbamoyl)-6-ethoxy-3,4-dihydroisoquinolin-2(1H)-yl)carbonyl)amino)butanoic acid]",92%,101%,100%

Structure (SMILES),inhibition at 1 µM [1],"inhibition at 3 µM [2, 5]",inhibition at 1 µM [3],inhibition at 1 µM [4],inhibition at 3 µM ([2]; Jurkat)
"CCOc1ccc2c(n1)CCN(C(=O)CCCC(=O)O)[C@H]2C(=O)Nc1ccc([Si](C)(C)C)c(F)c1 [Example 152, 5-((5R)-2-ethoxy-5-((3-fluoro-4-(trimethylsilyl)phenyl)carbamoyl)-7,8-dihydro-1,6-naphthyridin-6(5H)-yl)-5-oxopentanoic acid]",102%,–,97%,101%,103%
"COCc1ccc2c(c1)CCN(C(=O)Cc1cc(O)no1)[C@H]2C(=O)Nc1ccc([Si](C)(C)C)c(F)c1 [Example 101, (1R)-N-(3-fluoro-4-(trimethylsilyl)phenyl)-2-((3-hydroxy-1,2-oxazol-5-yl)acetyl)-6-(methoxymethyl)-1,2,3,4-tetrahydroisoquinoline-1-carboxamide]",102%,–,99%,102%,103%
"COCc1ccc2c(n1)CCN(C(=O)c1cc(O)no1)[C@H]2C(=O)Nc1cc(F)c([Si](C)(C)C)c(F)c1 [Example 136, (5R)-N-(3,5-difluoro-4-(trimethylsilyl)phenyl)-6-((3-hydroxy-1,2-oxazol-5-yl)carbonyl)-2-(methoxymethyl)-5,6,7,8-tetrahydro-1,6-naphthyridine-5-carboxamide]",100%,–,97%,102%,103%
